Where no end group is shown, it is not given here.
Legend:
[1] = tested on: peripheral blood mononuclear cells (PBMC); test: ELISPOT of IFN-γ producing T cells in PBMC, Example 1; format: cell-based, human; settings: PBMC receiving the peptide in comparison with PBMC not receiving the peptide
[2] = tested on: lung cancer patient two with metastasis at stage IV; test: Change in blood tumor marker levels in the lung cancer patient two, Example 2; format: in vivo, human
Protocol: The present example illustrates the case of the lung cancer patient two with metastasis at stage IV, who was administered with the WT1 peptide vaccine. In a similar manner to Example 1, a solution of wild type WT1 peptide (SEQ ID NO: 2) was mixed with Montanide ISA (registered trademark) 51 to provide a water-in-oil emulsion each just before the administration wherein the emulsion was injected intradermally at the upper arm of the patient totally six times, i.d. on day 0, 14, 28, 42, 56, and 71 wherein day 0 represents the day when the first administration was conducted.
The levels of tumor markers, CEA and SLX, were determined in a similar manner to Example 1, and the level of CYFRA (cytokeratin 19 fragments) was determined using Elecsys CYFRA produced by Roche.

[3] = tested on: cancer patient two suffered from acute myeloblastic leukemia (AML-M1) transformed from Myelodysplastic Syndromes (MDS); test: Leukocyte number and bone marrow leukemic blasts in the leukemia patient, Example 3; format: in vivo, human
Protocol: The present example illustrates the case of the cancer patient two suffered from acute myeloblastic leukemia (AML-M1) transformed from Myelodysplastic Syndromes (MDS), who was administered with the WT1 peptide vaccine. The WT1 peptide used in this example was altered type WT1 peptide: Cys Tyr Thr Trp Asn Gln Met Asn Leu (SEQ ID NO: 3) synthesized by MPS Inc. (U.S.) with GMP grade. In a similar manner to Example 1, the peptide was mixed with MONTANIDE ISA (registered trademark) 51 to provide a water-in-oil emulsion, and the emulsion was injected intradermally at the upper arm of the patient. Leukemic blasts occupied 50% of the bone marrow two days before the administration, while the total number of leukocytes was 1500/μl on the day before the administration. Two days after the administration, the total number of leukocytes was decreased to 700/μl, and the leukemic blasts of the bone marrow reduced to 27%. When a hemopoietic factor, G-CSF, was administered to the patient in the light of the decreased total number of leukocytes, the total number recovered to 2150/μl, and the leukemic blasts of the bone marrow was 11% seven days after the administration.

[4] = tested on: CTLs reactive to the wild type WT1 peptide-presenting HLA-A*2402 molecule; test: HLA tetramer method, CTLs reactive to wild type WT1 peptide-presenting HLA-A*2402, Example 3; format: in vivo, human; settings: two days after the administration; 1.1% three days before the administration
Protocol: Subsequently, the number of cytotoxic T cells (CTLs) reactive to the wild type WT1 peptide-presenting HLA-A*2402 molecule in the same patient was determined by an HLA tetramer method. The HLA-A*2402 tetramer was prepared using the wild type WT1 peptide according to the method described in Int. J. Cancer 100, 565-570 (2002). On a flow cytometer, FACS, the cells were stained with the two colors of PE-labeled HLA-A*2402 tetramer and FITC-labeled CD8 antibody, and the double-positive cells were assigned to CTLs recognizing the wild type WT1 peptide, i.e., CTLs reactive to WT1-positive cancer cells. CTL frequency three days before the administration of the peptide was 1.1%, whereas the frequency was increased to 8.8% two days after the administration.

Sequence | T cells producing IFN-γ in response to specifically the peptide (ELISPOT) [1] | level of SLX in blood ([2]; on and after the 2nd administration, before administration 50 U/ml, upper limit of normal 38 U/ml, FIG. 2) | level of CEA in blood ([2]; on and after the 2nd administration, before administration higher than upper limit of normal 5 ng/ml, FIG. 2) | level of CYFRA in blood ([2]; on and after the 3rd administration, below the upper limit of normal level, FIG. 2) | development of the tumor ([2]; water-in-oil emulsion, overall conclusion of Example 2) | leukemic blasts of the bone marrow ([3]; seven days after the administration, G-CSF also given) | leukemic blasts of the bone marrow ([3]; two days after the administration, 50% two days before the administration) | conditions of leukemia ([3]; water-in-oil emulsion, overall conclusion of Example 3) | CTL frequency (HLA-A*2402 tetramer and CD8 double-positive cells) [4]
CMTWNQMNL [wild type WT1 peptide] | found to be more | decreased to reach the normal level | decreased | < 2 ng/mL | suppressed the development of the tumor | – | – | – | –
CYTWNQMNL [altered type WT1 peptide] | – | – | – | – | – | 11% | 27% | improved the conditions of leukemia with decreased ratio of the leukemic blasts in the bone marrow | 8.8%
